Laboratory results as given in patent US20170080063A1, “HIGHLY SOLUBLE AQUAPORIN-4 EXTRACELLULAR LOOP C PEPTIDE IMMUNIZATION FOR TREATMENT OF NEUROMYELITIS OPTICA” (THE JOHNS HOPKINS UNIVERSITY, priority 2014, published 2017).
Entries after “also recorded” stand apart in the source; their conditions may differ.

Key:
mice = experiment: Neurological symptoms / clinical phenotype in mice given peptide; type: in vivo, mouse; conditions: for neurological symptoms (paralysis from spinal cord inflammation, visual impairment from optic nerve inflammation): mice administered the peptide; for clinical phenotype / autoimmune neurological disease after immunization: immunized AQP4 null mice
AQP4 null mice = experiment: Antibody production against AQP4 extracellular loop peptides after immunization; type: in vivo, mouse; conditions: AQP4 null mice immunized with the peptides
T cells = experiment: T cell proliferation assay (3H-thymidine incorporation) with spleen cells of immunized mice; type: cell-based, mouse; conditions: for T cell response against the peptide: T cells from AQP4 null mice immunized with AQP4 loop peptides
[1] = tested on: IL-17 and interferon-gamma (IFN-γ) cytokine-producing cells; experiment: ELISPOT assay of cytokine-producing cells; type: cell-based, mouse
Method: ELISPOT assay was used to determine the frequency of cytokine-producing cells in polarized and unpolarized cell cultures. The day before cells were to be harvested from immunized AQP4 null mice, the wells of an immobilon P-bottom 96-well plates (Multiscreen®HTS, 0.45 μm pore size; EMB Millipore, USA) were pre-wet with 35% ethanol for 30 seconds, washed three times with coating buffer, and coated with 50 μl of a 1:250 dilution of capture antibody, anti-IL17 (Th17), provided with ELISPOT Ready-Set-Go kits (eBioscience). Plates were covered and incubated overnight at 4° C. Wells were then washed twice with coating buffer and once with complete media; plates were stored in the incubator until cells were prepared. Spleen and lymph node cells were prepared as described above and prepared with and without polarizing conditions. Harvested cells were 2-fold serially diluted in media containing 3×10^7 irradiated splenocytes (irradiated with 3,500 rads) as antigen-presenting cells (APCs); APCs mixed 12:1 with 1.25×10^5 lymph node cells per well yielded the most well-defined spots. After overnight in culture, wells were washed (TBS+0.05% Tween®-20). Detection antibody was diluted 1:250 in diluents provided in the kit and 50 μl applied to each well for 2 hours at RT. After washing, streptavidin-alkaline phosphatase was added to each well (1:2500; Sigma) for 45 minutes. After further washing, signal was developed with development solution containing BCIP and NBT (i.e. 150 mM Tris-HCl, 5 mM MgCl2, 100 mM NaCl, pH9.5 supplemented with 4 mM levamisole (Sigma), 0.15 mg/ml 5-bromo-4-chloro-3-indolyl-phosphate, and 0.36 mg/ml 4-nitro blue tetrazolium chloride (Roche) for 10 minutes at room temperature in the dark. Reaction was stopped by washing with PBS then distilled H2O before air drying. Spots were imaged with an Immunospot Series 3 Analyzer (Cellular Technology, Ltd.) and counted using Image J and the “find Maxima” function. Results are expressed as the mean of triplicate values (±standard error of the mean, SEM) adjusted to per 10^6 cells per well. Student's t-test was performed on data; p<0.05 was considered statistically significant.

[2] = after polarization to Th17 phenotype, exposed to peptide
[3] = after polarization to Th17 phenotype, exposed to peptide, listed as AQP4135-53
[4] = unpolarized cell culture exposed to peptide, versus no stimulation
[5] = unpolarized cell culture exposed to peptide, versus no stimulation, listed as AQP4135-53

| Substance | neurological symptoms (paralysis from spinal cord inflammation, visual impairment from optic nerve inflammation) (mice) | antibody production against the loop peptide (AQP4 null mice) | clinical phenotype / autoimmune neurological disease after immunization (mice) | T cell response against the peptide (T cells) | other results |
| --- | --- | --- | --- | --- | --- |
| GILYLVTPPSVVGGLGVTMV [SEQ ID NO: 9, reference compound] | no such neurological symptoms |  |  |  |  |
| GNWENH (listed as Homo sapiens) [loop E, AQP4 extracellular loop E peptide (human 212-30 used)] |  | no evidence of antibody production |  |  |  |
| GTEKPLPV (listed as Homo sapiens) [loop A, AQP4 extracellular loop A peptide (human 56-69 used)] |  | no evidence of antibody production |  |  |  |
| LVTPPSVVGGLGVTMVHGN [SEQ ID NO: 8] | development of phenotypes | no evidence of antibody production | did not develop autoimmune neurological disease | remarkable T cell response; also recorded: robust T cell response; also recorded: robust reaction | number of IFN-γ producing cells [1, 2]: barely detectable; number of IL-17 producing cells [1, 2]: doubled; number of IFN-γ producing cells [1, 3]: nearly undetectable; number of IL-17 producing cells [1, 3]: almost doubled; number of IFN-γ producing cells [1, 4]: significant number; number of IL-17 producing cells [1, 4]: significant number; number of IFN-γ producing cells [1, 5]: significant levels; number of IL-17 producing cells [1, 5]: significant levels |
| MOG peptide 35-55: myelin-oligodendrocyte glycoprotein (MOG) peptide 35-55 (MEVGWYRSPFSRVVHLYRNGK; UniProt Q61885 63-83, looked up, fragment) [reference compound] |  |  |  |  | T cell proliferative activity (incorporation of tritiated-thymidine) (T cells; T cells from control wildtype mice (wt-MOG) immunized with MOG peptide 35-55): showed proliferative activity |
| TPPSVVGGLGVTMVHGNLTAG (listed as Homo sapiens) [loop C, peptide corresponding to the second extracellular loop of AQP4] |  | No evidence of antibody production | no clinical phenotype | robust T cell response | T cell response against the peptide (T cells; listed as loop C peptide): robust T cell response; also recorded: stimulated a T cell response |
